In the NIST ThermoML archive (doi:10.1016/j.jct.2016.09.022):

Tests used:
[1] = Liquid; for speed of sound: Frequency=1.5 MHz, Single path-length method; for mass density: 298.15 K, 101.33 kPa, Vibrating tube method
[2] = refractive index (Na D-line) (dimensionless); conditions: 298.15 K; 101.33 kPa; Liquid; Standard Abbe refractometry

CCO [ethanol]
speed of sound [m/s], [1]
Conditions	283.15 K	293.15 K	303.15 K	313.15 K	323.15 K	333.15 K	343.15 K
100 kPa	1198.8	1163.8	1129.3	1094.7	1060.4	1027	992.92
5100 kPa	1227.7	1193.5	1159.8	1127.7	1094.5	1062.7	1030.2
10100 kPa	1255.7	1222.5	1189.8	1157.4	1126.5	1096.3	1065.8
20100 kPa	1306.5	1275.6	1245	1214.7	1185.2	1156.9	1129
30100 kPa	1353.1	1323.7	1295	1266.5	1238.8	1212.1	1185.8
40100 kPa	1397	1368.7	1340.6	1313.5	1287.5	1262.3	1237.5
50100 kPa	1437.9	1410.7	1384.2	1358.2	1332.4	1310.5	1284.9
60100 kPa	1476.1	1449.9	1424.6	1399.1	1374.8	1351.2	1328.8
70100 kPa	1512.5	1486.8	1462.7	1438.4	1414.7	1391.9	1370.2
80100 kPa	1547.2	1522.1	1498.1	1475.7	1452	1429.6	1409.5
90100 kPa	1580.2	1555.7	1532.5	1510.1	1487.5	1466.1	1446.3
95100 kPa	1596.1	1571.8	1549.3	1526.4	1504.5	1483.5	1464.1

Conditions	mass density [kg/m3]	refractive index
[1]	785.1	–
[2]	–	1.3593

CCCCCCC [heptane]
speed of sound [m/s], [1]
Conditions	283.15 K	293.15 K	303.15 K	313.15 K	323.15 K	333.15 K	343.15 K
100 kPa	1197.2	1153.9	1111.4	1068.8	1025.9	983.91	942.89
5100 kPa	1231.5	1189.6	1148.8	1108.9	1068.6	1028.8	989.64
10100 kPa	1263.8	1223.4	1184.1	1145.2	1107.3	1069.8	1032.5
20100 kPa	1323.2	1284.8	1248.7	1212.3	1176.7	1141.9	1108.4
30100 kPa	1376.7	1340.1	1306.4	1272.1	1239	1206.4	1174.6
40100 kPa	1426.3	1391.5	1359.2	1326.3	1295.3	1264.6	1234.9
50100 kPa	1472.5	1439	1408.5	1377.4	1346.7	1317.4	1289.3
60100 kPa	1515.6	1483.3	1454.5	1424.7	1395.2	1366.6	1339.5
70100 kPa	1556.1	1525.3	1497.4	1468.7	1440.1	1412.9	1387
80100 kPa	1593.8	1564.9	1538.3	1510.3	1482.6	1456	1431.2
90100 kPa	1629.7	1602.3	1577	1549.8	1522.8	1496.7	1472.7
95100 kPa	1646.4	1620.6	1595	1568.8	1542.2	1516.4	1492.7

Conditions	mass density [kg/m3]	refractive index
[1]	679.5	–
[2]	–	1.3852
